Source: US20250339399A1, “SUPRAMOLECULAR SELF-ASSEMBLY SYSTEM” (Beijing Creatron Institute of Pharmaceutical Research Co., …, priority 2022, published 2025)

Columns and labels:
[1] = Guest molecule concentration after incubation in initial medium without polymer (Comparative Example 1); type: physicochemical; settings: 37° C.
Procedure: pH 2.0 hydrochloric acid, pH 4.5 acetate, and pH 6.5, pH 6.8, or pH 7.4 phosphate buffer solutions were prepared. The selection of each initial medium followed the principle that the solubility in the initial medium of the selected targets (or active ingredients) should low enough, but should meet the detection sensitivity and accuracy requirements of the corresponding analytical methods. Each buffer as initial media was placed in a 50 ml test tube with a stopper, shaken in a constant temperature air shaker at 37° C.±0.5° C., with an amplitude of 200 rpm, and incubated for 1 hour. […] Samples were taken at 0.5 h, 3 h and 6 h after incubation, centrifuged at 37° C., 13000 rpm for 5 minutes, and the supernatant was diluted at least 10 times with the mobile phase under the target analyte analytical method, filtered, the initial filtrate was discarded, and the continued filtrate was used as the test solution for injection analysis. The corresponding HPLC method under each target object item in Table 8 was used to determine the content of each target substance. When the solubility of the target in the initial medium is below the quantitative limit of the analytical method, a small amount of surfactant, such as sodium dodecyl sulfate (SDS), Tween20, or Tween80, can be added appropriately.
The above targets were incubated at 37° C.±0.5° C. for different time in an initial medium without any polymer. Each solid target formed by molecular stacking was removed by centrifugation, and the supernatant was analyzed using the HPLC method under each target item (see Table 8). The theoretical addition concentration of each target when its supramolecular self-assembly system was built was determined by its maximum dose in clinical use.

[2] = cited from earlier work
[3] = Binary supramolecular self-assembly systems of polymer and target: guest concentration over incubation time (Comparative Example 2); type: physicochemical
Procedure: Experiments were conducted according to the steps in Comparative Example 1, and quantitative analysis was carried out using the analytical method for each target to investigate the regulation ability […] stacking.

[4] = binary system with 0.5% polymer 101, incubation 0.5 h
[5] = binary system with 0.5% polymer 101, incubation 3 h
[6] = binary system with 0.5% polymer 101, incubation 6 h
[7] = binary system with 0.5% polymer 102, incubation 0.5 h
[8] = binary system with 0.5% polymer 102, incubation 3 h
[9] = binary system with 0.5% polymer 102, incubation 6 h
[10] = binary system with 0.5% polymer 103, incubation 0.5 h
[11] = binary system with 0.5% polymer 103, incubation 3 h
[12] = binary system with 0.5% polymer 103, incubation 6 h
[13] = binary system with 0.5% polymer 106, incubation 0.5 h
[14] = binary system with 0.5% polymer 106, incubation 3 h
[15] = binary system with 0.5% polymer 106, incubation 6 h
[16] = binary system with 0.5% polymer 107, incubation 0.5 h
[17] = binary system with 0.5% polymer 107, incubation 3 h
[18] = binary system with 0.5% polymer 107, incubation 6 h
[19] = binary system with 0.5% polymer 110, incubation 0.5 h
[20] = binary system with 0.5% polymer 110, incubation 3 h
[21] = binary system with 0.5% polymer 110, incubation 6 h

Concentration of the target in the solution measured after different incubation time [3, 4]	Concentration of the target in the solution measured after different incubation time [3, 5]	Concentration of the target in the solution measured after different incubation time [3, 6]	Concentration of the target in the solution measured after different incubation time [3, 7]	Concentration of the target in the solution measured after different incubation time [3, 8]	Concentration of the target in the solution measured after different incubation time [3, 9]	Concentration of the target in the solution measured after different incubation time [3, 10]	Concentration of the target in the solution measured after different incubation time [3, 11]	Concentration of the target in the solution measured after different incubation time [3, 12]	Concentration of the target in the solution measured after different incubation time [3, 13]	Concentration of the target in the solution measured after different incubation time [3, 14]	Concentration of the target in the solution measured after different incubation time [3, 15]	Concentration of the target in the solution measured after different incubation time [3, 16]	Concentration of the target in the solution measured after different incubation time [3, 17]	Concentration of the target in the solution measured after different incubation time [3, 18]	Concentration of the target in the solution measured after different incubation time [3, 19]	Concentration of the target in the solution measured after different incubation time [3, 20]	Concentration of the target in the solution measured after different incubation time [3, 21]	SMILES	LogD7.4 or Log P [2]	further results
209100 ng/mL	193900 ng/mL	197800 ng/mL	566600 ng/mL	580900 ng/mL	608200 ng/mL	292100 ng/mL	321400 ng/mL	246400 ng/mL	184100 ng/mL	124300 ng/mL	159400 ng/mL	497800 ng/mL	171600 ng/mL	167100 ng/mL	427600 ng/mL	429700 ng/mL	460800 ng/mL	CC#CC(=O)N1CCC[C@H]1c1nc(-c2ccc(C(=O)Nc3ccccn3)cc2)c2c(N)nccn12 [Acalabrutinib, acalabrutinib]	2.56	Concentration of guest molecule measured after different incubated time ([1]; 0.5 h, pH 7.4 phosphate buffer): 106000 ng/mL; Concentration of guest molecule measured after different incubated time ([1]; 3 h, pH 7.4 phosphate buffer): 87600 ng/mL; Concentration of guest molecule measured after different incubated time ([1]; 6 h, pH 7.4 phosphate buffer): 87600 ng/mL
45800 ng/mL	31000 ng/mL	9400 ng/mL	51500 ng/mL	47500 ng/mL	45900 ng/mL	1000 ng/mL	900 ng/mL	1300 ng/mL	1400 ng/mL	2100 ng/mL	1900 ng/mL	1500 ng/mL	800 ng/mL	2900 ng/mL	1900 ng/mL	1600 ng/mL	1300 ng/mL	CCc1cc2c(cc1N1CCC(N3CCOCC3)CC1)C(C)(C)c1[nH]c3cc(C#N)ccc3c1C2=O [Alectinib, alectinib]	4.75	Concentration of guest molecule measured after different incubated time ([1]; 0.5 h, pH 6.8 phosphate buffer): 2500 ng/mL; Concentration of guest molecule measured after different incubated time ([1]; 3 h, pH 6.8 phosphate buffer): 10200 ng/mL; Concentration of guest molecule measured after different incubated time ([1]; 6 h, pH 6.8 phosphate buffer): 2200 ng/mL
135300 ng/mL	34500 ng/mL	18400 ng/mL	47000 ng/mL	43800 ng/mL	4900 ng/mL	91600 ng/mL	110500 ng/mL	120700 ng/mL	103100 ng/mL	16200 ng/mL	18800 ng/mL	189100 ng/mL	33700 ng/mL	28800 ng/mL	4700 ng/mL	18300 ng/mL	3300 ng/mL	CCOc1nc2cccc(C(=O)OC(C)OC(=O)OC3CCCCC3)c2n1Cc1ccc(-c2ccccc2-c2nnn[nH]2)cc1 (stereo not shown) [Candesartan Cilexetil, candesartan cilexetil]	5.31	Concentration of guest molecule measured after different incubated time ([1]; 0.5 h, pH 4.5 acetate buffer): 3800 ng/mL; Concentration of guest molecule measured after different incubated time ([1]; 3 h, pH 4.5 acetate buffer): 2100 ng/mL; Concentration of guest molecule measured after different incubated time ([1]; 6 h, pH 4.5 acetate buffer): 2000 ng/mL
221000 ng/mL	187900 ng/mL	171700 ng/mL	24100 ng/mL	23200 ng/mL	28600 ng/mL	51800 ng/mL	39800 ng/mL	39100 ng/mL	67900 ng/mL	62800 ng/mL	60700 ng/mL	109200 ng/mL	93900 ng/mL	88600 ng/mL	27100 ng/mL	23600 ng/mL	26300 ng/mL	COC1=CC(=O)C[C@@H](C)[C@]12Oc1c(Cl)c(OC)cc(OC)c1C2=O [Griseofulvin, griseofulvin]	2.17	Concentration of guest molecule measured after different incubated time ([1]; 0.5 h, 0.1% SDS in pH 6.8 phosphate buffer): 35600 ng/mL; Concentration of guest molecule measured after different incubated time ([1]; 3 h, 0.1% SDS in pH 6.8 phosphate buffer): 27400 ng/mL; Concentration of guest molecule measured after different incubated time ([1]; 6 h, 0.1% SDS in pH 6.8 phosphate buffer): 24100 ng/mL
